# Literature values as cited in patent US20150216850A1 (priority 2012, published 2015).
# What was measured:
# [1] = test system: Huntington's disease patients
# [2] = test system: Huntington's disease patients; details: twice-daily doses of 45 mg over 12 weeks
# [3] = test system: patients with HD
smiles,measurement,setting,value
CCCN1CCC(c2cccc(S(C)(=O)=O)c2)CC1 [pridopidine],"tertiary endpoint UHDRS-TMS and individual items within the mMS (gait, dysarthria)",[1]; 45 mg daily or 90 mg daily for 6 months,statistically significant effect
same,primary endpoint: effect on subset of motor symptoms defined in the mMS,"[1]; 45 mg daily or 90 mg daily, at 26 weeks",not met
same,effect on total motor function,[2],significant effect
same,"symptomatic relief (hand movements, gait and balance)",[3],significant symptomatic relief
